The results in this text go back to ChEMBL document CHEMBL1909046, “DrugMatrix in vitro pharmacology data”.

One data set addresses Melanocortin receptor 3 (Homo sapiens, UniProt P41968). The class given is cell membranes, Membrane. To be noted: hek293.
For the next data set, the target named is Mu-type opioid receptor (Homo sapiens, UniProt P35372). Kind of data set: DRUGMATRIX: Opiate mu (OP3, MOP) radioligand binding (ligand: [3H] Diprenorphine). To be noted: cho-k1; Not Active = under 50% inhibition at 10 µM. The class given is cell membranes, CHO-K1, Membrane.
Mu-type opioid receptor, sequence (P35372 whole entry): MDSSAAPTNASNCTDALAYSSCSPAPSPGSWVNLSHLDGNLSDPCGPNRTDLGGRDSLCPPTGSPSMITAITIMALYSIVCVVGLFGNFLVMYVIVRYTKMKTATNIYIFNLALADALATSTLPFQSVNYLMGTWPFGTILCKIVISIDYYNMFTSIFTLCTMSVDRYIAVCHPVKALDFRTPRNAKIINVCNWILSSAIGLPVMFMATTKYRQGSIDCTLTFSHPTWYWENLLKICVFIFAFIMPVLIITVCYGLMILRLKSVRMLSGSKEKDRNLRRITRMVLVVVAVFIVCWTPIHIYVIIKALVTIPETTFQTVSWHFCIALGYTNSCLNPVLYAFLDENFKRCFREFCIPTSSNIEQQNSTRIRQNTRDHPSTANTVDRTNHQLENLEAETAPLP
Data set [1] concerns the target T1, Muscarinic acetylcholine receptor M5 (Homo sapiens, UniProt P08912). Further: in other assays of this panel Not Active means under 50% inhibition at 10 µM.
T1 sequence (P08912 whole entry): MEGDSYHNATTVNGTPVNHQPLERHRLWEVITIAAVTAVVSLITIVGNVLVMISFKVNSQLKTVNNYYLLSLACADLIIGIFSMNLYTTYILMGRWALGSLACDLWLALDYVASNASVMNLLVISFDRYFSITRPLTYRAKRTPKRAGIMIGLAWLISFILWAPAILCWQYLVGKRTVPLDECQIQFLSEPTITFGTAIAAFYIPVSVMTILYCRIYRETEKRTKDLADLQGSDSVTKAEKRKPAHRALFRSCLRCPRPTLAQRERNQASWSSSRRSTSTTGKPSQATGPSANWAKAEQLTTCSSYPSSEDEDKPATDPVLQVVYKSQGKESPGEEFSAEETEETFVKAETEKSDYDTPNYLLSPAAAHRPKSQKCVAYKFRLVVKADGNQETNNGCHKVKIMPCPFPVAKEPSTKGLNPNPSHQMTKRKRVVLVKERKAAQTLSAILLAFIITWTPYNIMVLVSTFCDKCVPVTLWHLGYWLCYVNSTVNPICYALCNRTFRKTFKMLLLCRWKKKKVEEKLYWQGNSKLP
The class given is cell membranes, CHO-K1, Membrane. Particulars: cho-k1.

The target in data set [2] is Aldo-keto reductase family 1 member B1 (Rattus norvegicus, UniProt P07943). The class given is tissue-based, Lens of camera-type eye.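 Further: inhibition of aldose reductase enzyme activity, measured with DL-glyceraldehyde as the substrate; in other assays of this panel Not Active means under 50% inhibition at 10 µM.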
Data set [3] concerns the target Delta-type opioid receptor (Homo sapiens, UniProt P41143). The class given is cell membranes, HEK293, Membrane. Particulars: hek293. Further: in other assays of this panel Not Active means under 50% inhibition at 10 µM.
Data set [4] in a line: DRUGMATRIX: Glutamate, NMDA, Agonism radioligand binding (ligand: [3H] CGP-39653). The class given is cell membranes, Rattus norvegicus, Wistar, Cerebral cortex, Membrane. Particulars: Not Active = under 50% inhibition at 10 µM.
Another data set deals with T2, Leukotriene C4 synthase (Cavia porcellus, UniProt A6XA80).
T2 sequence (A6XA80 whole entry): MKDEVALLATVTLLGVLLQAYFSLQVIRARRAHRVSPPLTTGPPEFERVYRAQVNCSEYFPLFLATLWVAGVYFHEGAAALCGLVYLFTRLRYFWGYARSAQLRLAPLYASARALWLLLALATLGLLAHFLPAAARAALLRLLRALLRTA
Kind of data set: biochemical. Type of data set: tissue-based, Lung.

Data set [5] concerns the target T3, 5-hydroxytryptamine receptor 1A (Rattus norvegicus, UniProt P19327). Further: in other assays of this panel Not Active means under 50% inhibition at 10 µM.
T3 sequence (P19327 whole entry): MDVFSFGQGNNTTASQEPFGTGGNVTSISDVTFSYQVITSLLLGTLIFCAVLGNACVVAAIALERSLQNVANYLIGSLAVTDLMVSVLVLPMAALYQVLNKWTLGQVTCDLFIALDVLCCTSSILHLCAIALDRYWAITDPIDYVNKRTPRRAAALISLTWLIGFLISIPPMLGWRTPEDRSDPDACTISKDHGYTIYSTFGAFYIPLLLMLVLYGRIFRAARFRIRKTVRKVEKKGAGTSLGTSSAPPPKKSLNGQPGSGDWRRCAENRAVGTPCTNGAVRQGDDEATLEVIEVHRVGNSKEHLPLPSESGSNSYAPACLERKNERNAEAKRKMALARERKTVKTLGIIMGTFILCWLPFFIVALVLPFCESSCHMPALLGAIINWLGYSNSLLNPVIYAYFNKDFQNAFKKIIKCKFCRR
The class given is cell membranes, CHO-K1, Membrane. To be noted: cho-k1.

Data set [6] can be described thus: DRUGMATRIX: Leukotriene, BLT (LTB4) radioligand binding (ligand: [3H]LTB4). The class given is cell membranes, Membrane. To be noted: u-937; Not Active = under 50% inhibition at 10 µM.
A further data set concerns the target Insulin receptor (Rattus norvegicus, UniProt P15127). Type of data set: cell membranes, Wistar, Liver, Membrane. Further: in other assays of this panel Not Active means under 50% inhibition at 10 µM.
In a further data set the target is T4, Cytochrome P450 2A6 (Homo sapiens, UniProt P11509). Further: in other assays of this panel Not Active means under 50% inhibition at 10 µM.
T4 sequence (P11509 whole entry): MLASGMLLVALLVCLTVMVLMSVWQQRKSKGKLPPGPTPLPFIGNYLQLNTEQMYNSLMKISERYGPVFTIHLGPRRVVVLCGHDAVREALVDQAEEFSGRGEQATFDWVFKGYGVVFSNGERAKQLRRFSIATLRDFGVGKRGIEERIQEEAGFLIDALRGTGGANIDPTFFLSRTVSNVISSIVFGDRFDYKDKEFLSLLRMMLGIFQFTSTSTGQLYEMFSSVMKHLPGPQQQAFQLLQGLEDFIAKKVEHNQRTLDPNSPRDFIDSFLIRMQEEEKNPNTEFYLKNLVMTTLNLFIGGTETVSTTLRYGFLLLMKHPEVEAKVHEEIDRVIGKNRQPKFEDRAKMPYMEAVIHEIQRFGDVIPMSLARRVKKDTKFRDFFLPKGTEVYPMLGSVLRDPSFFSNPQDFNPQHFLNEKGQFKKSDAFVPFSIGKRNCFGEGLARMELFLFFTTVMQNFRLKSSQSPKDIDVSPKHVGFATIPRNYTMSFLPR
To be noted: bti-tn-5b1-4.

A short description of data set [7]: DRUGMATRIX: GABAA, Chloride Channel, TBOB radioligand binding (ligand: [3H] TBOB). The class given is cell membranes, Rattus norvegicus, Wistar, Cerebral cortex, Membrane. Particulars: Not Active = under 50% inhibition at 10 µM.
For data set [8], the target named is T5, 5-hydroxytryptamine receptor 2C (Homo sapiens, UniProt P28335).
T5 sequence (P28335 whole entry): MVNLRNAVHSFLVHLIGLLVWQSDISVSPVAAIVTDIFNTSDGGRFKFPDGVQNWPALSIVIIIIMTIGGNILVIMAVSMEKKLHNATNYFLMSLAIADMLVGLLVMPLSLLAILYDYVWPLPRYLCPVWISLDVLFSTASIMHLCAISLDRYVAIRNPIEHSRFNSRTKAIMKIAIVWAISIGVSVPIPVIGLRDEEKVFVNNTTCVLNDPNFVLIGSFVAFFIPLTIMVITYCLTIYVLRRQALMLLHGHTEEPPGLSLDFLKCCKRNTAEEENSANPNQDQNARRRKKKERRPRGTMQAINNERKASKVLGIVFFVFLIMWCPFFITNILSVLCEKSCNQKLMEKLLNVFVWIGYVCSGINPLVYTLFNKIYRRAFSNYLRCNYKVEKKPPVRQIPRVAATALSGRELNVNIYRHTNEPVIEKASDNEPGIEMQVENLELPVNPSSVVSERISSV
Kind of data set: DRUGMATRIX: Serotonin (5-Hydroxytryptamine) 5-HT2C radioligand binding (ligand: [3H] Mesulergine). The class given is cell membranes, CHO-K1, Membrane. Particulars: Not Active = under 50% inhibition at 10 µM.

The nature of data set [9]: DRUGMATRIX: Serotonin (5-Hydroxytryptamine) 5-HT3 radioligand binding (ligand: [3H] GR-65630). Type of data set: cell membranes, Membrane. To be noted: hek293; Not Active = under 50% inhibition at 10 µM.

Delta-type opioid receptor, sequence (P41143 whole entry): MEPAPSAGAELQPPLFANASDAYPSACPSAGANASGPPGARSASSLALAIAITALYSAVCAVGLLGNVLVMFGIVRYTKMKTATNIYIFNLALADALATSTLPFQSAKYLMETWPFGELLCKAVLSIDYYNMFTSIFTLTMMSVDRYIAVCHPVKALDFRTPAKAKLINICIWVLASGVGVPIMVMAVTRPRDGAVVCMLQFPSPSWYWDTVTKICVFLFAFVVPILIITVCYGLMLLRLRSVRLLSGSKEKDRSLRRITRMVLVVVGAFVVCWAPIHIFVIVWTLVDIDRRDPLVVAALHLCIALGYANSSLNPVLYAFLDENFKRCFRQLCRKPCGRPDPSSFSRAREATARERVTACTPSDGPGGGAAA
Melanocortin receptor 3, sequence (P41968 whole entry): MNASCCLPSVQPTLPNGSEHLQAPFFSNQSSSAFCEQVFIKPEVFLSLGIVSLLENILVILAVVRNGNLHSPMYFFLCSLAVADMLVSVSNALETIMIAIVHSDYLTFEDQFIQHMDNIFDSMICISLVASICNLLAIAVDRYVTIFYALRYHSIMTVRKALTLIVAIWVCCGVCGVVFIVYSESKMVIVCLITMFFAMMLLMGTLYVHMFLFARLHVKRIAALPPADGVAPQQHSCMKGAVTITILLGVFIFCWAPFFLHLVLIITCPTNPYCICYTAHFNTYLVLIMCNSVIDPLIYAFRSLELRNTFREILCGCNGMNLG
Insulin receptor, sequence (P15127 27-759 limits assumed): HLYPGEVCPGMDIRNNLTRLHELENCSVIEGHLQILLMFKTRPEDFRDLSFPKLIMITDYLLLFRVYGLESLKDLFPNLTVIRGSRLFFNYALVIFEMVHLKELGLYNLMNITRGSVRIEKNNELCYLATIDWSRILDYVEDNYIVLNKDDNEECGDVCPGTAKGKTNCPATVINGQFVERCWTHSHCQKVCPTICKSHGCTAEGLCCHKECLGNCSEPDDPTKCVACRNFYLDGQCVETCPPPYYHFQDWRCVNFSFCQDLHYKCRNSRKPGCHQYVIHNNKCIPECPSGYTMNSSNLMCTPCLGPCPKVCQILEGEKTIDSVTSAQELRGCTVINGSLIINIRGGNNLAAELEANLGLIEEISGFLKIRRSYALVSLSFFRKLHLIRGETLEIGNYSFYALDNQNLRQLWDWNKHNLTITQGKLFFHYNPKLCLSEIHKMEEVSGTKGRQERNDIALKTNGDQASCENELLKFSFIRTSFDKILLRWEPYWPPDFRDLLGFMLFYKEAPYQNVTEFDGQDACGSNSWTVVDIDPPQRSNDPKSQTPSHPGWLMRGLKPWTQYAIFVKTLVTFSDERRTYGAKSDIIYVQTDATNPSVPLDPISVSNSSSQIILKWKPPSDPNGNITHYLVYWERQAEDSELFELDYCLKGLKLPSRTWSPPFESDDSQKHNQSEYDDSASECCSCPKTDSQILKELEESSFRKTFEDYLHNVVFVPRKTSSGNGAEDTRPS
Insulin receptor, sequence (P15127 764-1383 limits assumed): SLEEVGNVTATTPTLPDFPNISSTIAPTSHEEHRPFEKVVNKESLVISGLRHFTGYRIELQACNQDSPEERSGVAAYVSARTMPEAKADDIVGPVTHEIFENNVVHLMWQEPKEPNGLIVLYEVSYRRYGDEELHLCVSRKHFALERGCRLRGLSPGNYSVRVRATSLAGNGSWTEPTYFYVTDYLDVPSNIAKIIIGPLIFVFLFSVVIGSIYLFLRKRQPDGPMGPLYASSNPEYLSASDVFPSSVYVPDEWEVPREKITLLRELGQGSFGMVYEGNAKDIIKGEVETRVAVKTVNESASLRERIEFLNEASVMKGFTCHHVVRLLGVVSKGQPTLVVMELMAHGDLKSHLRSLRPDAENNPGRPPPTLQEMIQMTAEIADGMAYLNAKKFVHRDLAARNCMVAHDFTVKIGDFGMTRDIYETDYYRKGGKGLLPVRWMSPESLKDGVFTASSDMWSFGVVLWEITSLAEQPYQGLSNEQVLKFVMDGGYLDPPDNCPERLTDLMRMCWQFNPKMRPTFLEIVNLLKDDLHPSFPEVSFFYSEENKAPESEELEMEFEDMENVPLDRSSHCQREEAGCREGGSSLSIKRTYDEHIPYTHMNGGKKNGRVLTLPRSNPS

As usually defined, the IC50 is the concentration that gives 50% inhibition. As a reminder, the Ki is a measure of affinity in units of concentration, obtained from inhibition or displacement. With `CCOC(=O)[C@H](CCc1ccccc1)N[C@@H](C)C(=O)N1[C@H](C(=O)O)C[C@@H]2CCC[C@@H]21`, the IC50 result (against Melanocortin receptor 3; at Mu-type opioid receptor; in data set [1]; in data set [2]; in data set [3]; in data set [4]) was “Not Active” each time. The IC50 result (against Leukotriene C4 synthase; in [5]; in [6]; against Insulin receptor; against Cytochrome P450 2A6; in data set [7]) was “Not Active” in each case. In addition, the half-maximal inhibitory concentration (IC50) entry in [8] (cho-k1) and in data set [9] was “Not Active” each time. Moreover, the Ki entry (in data set [4]; in [6]; on Cytochrome P450 2A6; in data set [7]; in [9]) was “Not Active” in each case.

`CC(C)(C)NC(=O)[C@@H]1CN(Cc2cccnc2)CCN1C[C@@H](O)C[C@@H](Cc1ccccc1)C(=O)N[C@H]1c2ccccc2C[C@H]1O.O`: the IC50 result (against Melanocortin receptor 3; on Mu-type opioid receptor; in data set [1]; in data set [2]; in [3]; in [4]) was “Not Active” in each case. For the same compound, the half-inhibitory concentration (IC50) entry (at Leukotriene C4 synthase; in data set [5]; in [6]; against Insulin receptor; on Cytochrome P450 2A6; in [7]) was “Not Active” in each case. Moreover, the half-inhibitory concentration (IC50) result in data set [8] (cho-k1) and in data set [9] was “Not Active” each time. Also, the Ki entry (in [4]; in data set [6]; on Cytochrome P450 2A6; in data set [7]; in [9]) was “Not Active” throughout.

As for `CC1(C)[C@H]2CC[C@]1(C)C(=O)C2` [(-)-CAMPHOR], the IC50 entry (against Melanocortin receptor 3; at Mu-type opioid receptor; in data set [1]; in data set [2]; in data set [3]; in data set [4]) was “Not Active” each time. Also, the IC50 entry (on Leukotriene C4 synthase; in [5]; in data set [6]; at Insulin receptor; at Cytochrome P450 2A6; in data set [7]) was “Not Active” each time. Further, the IC50 entry in data set [8] (cho-k1) and in [9] was “Not Active” each time. In addition, the Ki result (in data set [4]; in [6]; at Cytochrome P450 2A6; in data set [7]; in data set [9]) was “Not Active” in each case.

For `COC(=O)C1=C(C)NC(C)=C(C(=O)OC)C1c1ccccc1[N+](=O)[O-]` [NIFEDIPINE], the concentration for half-maximal inhibition (IC50) result (against Melanocortin receptor 3; on Mu-type opioid receptor; in data set [1]; in data set [2]; in data set [3]; in data set [4]) was “Not Active” throughout. For the same compound, the half-inhibitory concentration (IC50) result is “Not Active” against Leukotriene C4 synthase; “Not Active” in [5]; “Not Active” in data set [6]; “Not Active” on Insulin receptor; “Not Active” in data set [7]; 18.3 µM in data set [8] (read-out: IC50). The IC50 entry in [9] is reported as “Not Active”. For the same compound, the Ki entry in data set [4] is “Not Active”; in [6] it was “Not Active”; in data set [7] it was “Not Active”; in [8] (read-out: Ki), 9.57 µM; in [9], “Not Active”.

On to `CN[C@@H]1[C@@H](O)[C@@H](O[C@@H]2[C@@H](O)[C@H](O[C@H]3OC(CN)=CC[C@H]3N)[C@@H](N)C[C@H]2N)OC[C@]1(C)O` [SISOMICIN], for which the IC50 entry (at Melanocortin receptor 3; at Mu-type opioid receptor; in [1]; in data set [2]; in [3]; in [4]) was “Not Active” throughout. For the same compound, the IC50 result (against Leukotriene C4 synthase; in data set [5]; in data set [6]; against Insulin receptor; in data set [7]; in data set [8] (cho-k1)) was “Not Active” in each case. Besides, the concentration for half-maximal inhibition (IC50) result in [9] was “Not Active”. Besides, the Ki result in data set [4], in data set [6], in [7] and in [9] was “Not Active” throughout.
